Columns and labels:
CT-L proteasome activity = CT-L proteasome activity in RBCs of treated mice; assay type: in vivo, mouse; conditions: by 24 h after treatment, murine RBCs, data not shown
Protocol: Cells were harvested by centrifugation at 1200 r.p.m. at room temperature. Cell pellets were washed with PBS and lysed with assay lysis buffer (50 mM HEPES (2-[4-(2-hydroxyethyl) piperazin-1-yl]ethanesulfonic acid)), pH 7.5; 150 mM NaCl; 1% Triton X-100; 2 mM ATP). Cell lysates were incubated on ice for 30 min, mixed by vortex every 5 min, and centrifuged at 12 000 × g for 10 min. Supernatants were transferred to a 96-well plate in triplicate. For each assay, 10 μg of total protein were incubated for 1 h at 37 °C with increasing concentrations (0.001–10 μM) of test compound or vehicle control diluted in assay buffer (50 mM Tris-HCl (tris(hydroxymethyl)aminomethane-HCl), pH 7.5; 150 mM NaCl). After incubation, a specific fluorogenic proteasome substrate was added to each assay reaction (40 μM in a total volume of 100 μl). N-Succinyl-Leu-Leu-Val-Tyr-7-amino-4-methylcoumarin (Suc-Leu-Leu-Val-Tyr-AMC) was used for measuring CT-L activity, t-butoxycarbonyl- Leu-Arg-Arg-7-amino-4-methylcoumarin (Boc-Leu-Arg-Arg-AMC) for T-L activity, and benzyloxycarbonyl-L-leucyl-L-leucyl-L-glutamyl-7-amino-4-methylcoumarin (Z-Leu-Leu-Glu-AMC) for C-L activity. The excitation wavelength was 360 nm and the fluorescence emission of free AMC released during the enzymatic reaction was detected at 460 nm on a SpectraMax M5 fluorescent spectrophotometric plate reader (Molecular Devices, Sunnyvale, CA, USA). AMC release rate was measured at 37 °C in a kinetic mode, recording every 5 min for 30 min.
Five-to-six-week-old male NOD/SCID mice were administered vehicle (5% DMSO, 20% Cremophor) or proteasome inhibitors either intravenously or by oral gavage (3 mice per group), and 20–50 μl of venous blood were collected from each mouse over 24 h. Blood samples were mixed with heparin (APP Pharmaceuticals; Schaumburg, IL, USA) in 0.5-ml tubes in accordance with the manufacturer's instructions. After centrifugal separation at 3000 × g for 10 min, RBCs in the bottom layer were transferred into a new tube and stored at −70 °C until use. RBCs were lysed with assay lysis buffer and incubated on ice for 30 min, mixing by vortex every 5 min, and centrifuged at 12 000 × g for 10 min. Supernatants were transferred to a 96-well plate and proteasome activity was measured as described in 'Cell lysates' section.

rats = conditions: cited from earlier work
[1] = Metabolic stability assay with pooled mouse liver microsomes; assay type: in vitro ADME; conditions: 5 μM compound, 15 min, 0.5 mg/ml pooled mouse liver microsomes, LC/MS
Protocol: Pooled liver microsomes isolated from male CD-1 mice were purchased from BD Biosciences (San Jose, CA, USA). Metabolic stability was calculated by measuring the percentage of 5 μM of each test compound remaining after 15 min incubation with 0.5 mg/ml liver microsomes at 37 °C. Compounds were detected by LC/MS using a Xevo quadrupole time-of-flight mass spectrometer and an ACQUITY ultra-performance LC (UPLC) system (Waters Inc., Milford, MA, USA) to determine relative peak areas of each parent compound.

[2] = system: patients with multiple myeloma; conditions: infusion over 30 min; cited from earlier work

Compound | proteasome activity recovered, of baseline levels (CT-L proteasome activity) [%] | rats for which dose was lethal (rats; 8 mg/kg, bolus infusion, rats) [%] | toxicity of 30 min infusion (rats; rat, in vivo) | percentage of parent compound remaining [1] [%] | dose tolerated without adverse effects [2]
CC(C)C[C@H](NC(=O)[C@H](Cc1ccccc1)NC(=O)c1cnccn1)B(O)O [bortezomib, reference compound] | > 50 |  |  |  | 
CC(C)C[C@H](NC(=O)[C@H](CCc1ccccc1)NC(=O)CN1CCOCC1)C(=O)N[C@@H](Cc1ccccc1)C(=O)N[C@@H](CC(C)C)C(=O)[C@@]1(C)CO1 [carfilzomib] |  | 44 | not toxic | 70 | up to 56 mg/m^2

— publication PMC4650734, “FV-162 is a novel, orally bioavailable, irreversible proteasome inhibitor with improved pharmacokinetics displaying preclinical efficacy with continuous daily dosing” (Cell Death & Disease, 2015)
